Literature values in US9114169B2, “Sweetening and healthy compositions and methods associated therewith” (priority 2013, dated 2015).

What was measured:
[1] = fold greater than resveratrol
[2] = compared with resveratrol
[3] = compared with resveratrol; remark: listed apart in the source
[4] = fold longer than resveratrol

Compound: COc1cc(/C=C/c2ccc(O)cc2)cc(OC)c1 [Pterostilbene, pterostilbene]
- cellular uptake relative to resveratrol [1]: 2-4 times
- metabolic stability relative to resveratrol [2]: greater
- absorption relative to resveratrol [3]: greater absorption
- half-life in the human body relative to resveratrol [4]: seven
